From ChEMBL document CHEMBL4732221, “Design, synthesis and bioactivity evaluation of novel pyrazole linked phenylthiazole derivatives in context of antibacterial activity” (Bioorg Med Chem Lett, 2021)
Converted amounts (≈) assume the structure as drawn. The source made the active and inactive calls. No cut-off for these calls is given here.

What was measured:
[1] = (§1) Haemolytic activity against human whole blood after 70 mins by monochromator plate reader; format: ADME, tissue-based; settings: whole blood
[2] = system: Blood; assay: as §1; format: ADME, tissue-based; settings: blood, 1.167 h
[3] = system: Escherichia coli; assay: Antibacterial activity against Escherichia coli assessed as reduction in bacterial growth by CLSI based broth microdilution method; format: functional; settings: time 18 hrs
[4] = system: Enterococcus faecalis; assay: Antibacterial activity against vancomycin resistant Enterococcus faecalis assessed as reduction in bacterial growth by CLSI based broth microdilution method; format: functional; settings: time 18 hrs
[5] = system: Streptococcus pneumoniae; assay: Antibacterial activity against Streptococcus pneumoniae assessed as reduction in bacterial growth by CLSI based broth microdilution method; format: functional; settings: time 18 hrs
[6] = system: Staphylococcus aureus; assay: Antibacterial activity against methicillin-resistant Staphylococcus aureus assessed as reduction in bacterial growth by CLSI based broth microdilution method; format: functional; settings: time 18 hrs
[7] = system: Acinetobacter baumannii; assay: Antibacterial activity against Acinetobacter baumannii ATCC 19606 assessed as growth inhibition after 18 hrs by monochromator plate assay; format: functional
[8] = system: Pseudomonas aeruginosa; assay: Antibacterial activity against Pseudomonas aeruginosa ATCC 27853 assessed as growth inhibition after 18 hrs by monochromator plate assay; format: functional
[9] = system: Klebsiella pneumoniae; assay: Antibacterial activity against Klebsiella pneumoniae ATCC 700603 assessed as growth inhibition after 18 hrs by monochromator plate assay; format: functional
[10] = system: Escherichia coli; assay: Antibacterial activity against Escherichia coli ATCC 25922 assessed as growth inhibition after 18 hrs by monochromator plate assay; format: functional
[11] = system: Staphylococcus aureus; assay: Antibacterial activity against methicillin-resistant Staphylococcus aureus ATCC 43300 assessed as growth inhibition after 18 hrs by monochromator plate assay; format: functional
[12] = system: Cryptococcus neoformans; assay: Antifungal activity against Cryptococcus neoformans var. grubii ATCC 208821 assessed as growth inhibition at 32 ug/ml after 36 hrs by monochromator plate assay relative to control; format: functional; settings: dose 32.0 µg/ml
[13] = system: Candida albicans; assay: Antifungal activity against Candida albicans ATCC 90028 assessed as growth inhibition at 32 ug/ml after 36 hrs by monochromator plate assay relative to control; format: functional
[14] = system: Acinetobacter baumannii; assay: Antibacterial activity against Acinetobacter baumannii ATCC 19606 assessed as growth inhibition at 32 ug/ml after 18 hrs by monochromator plate assay relative to control; format: functional; settings: for inhibition: dose 32.0 µg/ml
[15] = system: Pseudomonas aeruginosa; assay: Antibacterial activity against Pseudomonas aeruginosa ATCC 27853 assessed as growth inhibition at 32 ug/ml after 18 hrs by monochromator plate assay relative to control; format: functional
[16] = system: Klebsiella pneumoniae; assay: Antibacterial activity against Klebsiella pneumoniae ATCC 700603 assessed as growth inhibition at 32 ug/ml after 18 hrs by microplate reader assay relative to control; format: functional; settings: for inhibition: dose 32.0 µg/ml
[17] = system: Escherichia coli; assay: Antibacterial activity against Escherichia coli ATCC 25922 assessed as growth inhibition at 32 ug/ml after 18 hrs by monochromator plate assay relative to control; format: functional; settings: dose 32.0 µg/ml
[18] = system: Staphylococcus aureus; assay: Antibacterial activity against methicillin-resistant Staphylococcus aureus ATCC 43300 assessed as growth inhibition at 32 ug/ml after 18 hrs by monochromator plate assay relative to control; format: functional
[19] = system: Candida albicans; assay: Antifungal activity against Candida albicans ATCC 90028 assessed as growth inhibition after 36 hrs by monochromator plate assay; format: functional
[20] = system: Cryptococcus neoformans; assay: Antifungal activity against Cryptococcus neoformans var. grubii ATCC 208821) assessed as growth inhibition after 36 hrs by monochromator plate assay relative to control; format: functional
[21] = Cytotoxicity against HEK293 cells assessed as cell viability after 20 hrs by fluorescence assay; format: cell-based; settings: human
[22] = Inhibition of Escherichia coli DNA topoisomerase 4 assessed as reduction in decatenation of kinetoplast DNA measured after 1 hr by agarose gel electrophoresis method

CC[C@H](C)[C@H](NC(=O)CN)C(=O)NCC(=O)N[C@@H](C)C(=O)N[C@H](C(=O)N[C@@H](CC(C)C)C(=O)N[C@@H](CCCCN)C(=O)N[C@H](C(=O)N[C@@H](CC(C)C)C(=O)N[C@H](C(=O)N[C@H](C(=O)NCC(=O)N[C@@H](CC(C)C)C(=O)N1CCC[C@H]1C(=O)N[C@@H](C)C(=O)N[C@@H](CC(C)C)C(=O)N[C@H](C(=O)N[C@@H](CO)C(=O)N[C@@H](Cc1c[nH]c2ccccc12)C(=O)N[C@H](C(=O)N[C@@H](CCCCN)C(=O)N[C@@H](CCCNC(=N)N)C(=O)N[C@@H](CCCCN)C(=O)N[C@@H](CCCNC(=N)N)C(=O)N[C@@H](CCC(N)=O)C(=O)N[C@@H](CCC(N)=O)C(N)=O)[C@@H](C)CC)[C@@H](C)CC)[C@@H](C)O)[C@@H](C)O)C(C)C)C(C)C [MELITTIN]
HC50 at 1.167 h [1]: 8.5 µg/mL | HC10 [2]: 2.7 µg/mL

Clc1cccc(-n2nc(C3CCNCC3)cc2/C=C/c2c[nH]c3ccc(Cl)cc23)c1
MIC [3]: 16 µg/mL (≈ 36.6 µM) | MIC [4]: 2 µg/mL (≈ 4.57 µM) | MIC [5]: 2 µg/mL (≈ 4.57 µM) | MIC [6]: 2 µg/mL (≈ 4.57 µM)

CCOC(=O)c1cc(-c2sc(-c3ccc(-c4ccccc4)cc3)nc2C)[nH]n1
MIC [7]: > 32 µg/mL | MIC [8]: > 32 µg/mL | MIC [9]: inactive | MIC [10]: inactive | MIC [11]: > 32 µg/mL | inhibition [12]: inactive | inhibition at 32 µg/mL [13]: 5.6% | inhibition at 32 µg/mL [14]: 2.8% | inhibition at 32 µg/mL [15]: 1.5% | inhibition [16]: inactive | inhibition [17]: inactive | inhibition at 32 µg/mL [18]: 13.6% | MIC [19]: > 32 µg/mL | MIC [20]: inactive

Cc1nc(-c2ccc(-c3ccccc3)cc2)sc1-c1cc(C(=O)NCC2CCCCC2)n[nH]1
MIC [7]: inactive | MIC [8]: inactive | MIC [9]: inactive | MIC [10]: inactive | MIC [11]: > 32 µg/mL | inhibition [12]: inactive | inhibition ([13]; dose 32.0 µg/ml): inactive | inhibition [14]: inactive | inhibition ([15]; dose 32.0 µg/ml): inactive | inhibition [16]: inactive | inhibition [17]: inactive | inhibition at 32 µg/mL [18]: 4.1% | MIC [19]: inactive | MIC [20]: inactive

Cc1nc(-c2ccc(-c3ccccc3)cc2)sc1-c1cc(C(=O)Nc2ccccc2)n[nH]1
MIC [7]: > 32 µg/mL | MIC [8]: > 32 µg/mL | MIC [9]: > 32 µg/mL | MIC [10]: inactive | MIC [11]: 4 µg/mL (≈ 9.16 µM) | inhibition [12]: inactive | inhibition at 32 µg/mL [13]: 9.6% | inhibition at 32 µg/mL [14]: 1.6% | inhibition at 32 µg/mL [15]: 16.6% | inhibition at 32 µg/mL [16]: 9.9% | inhibition [17]: inactive | inhibition at 32 µg/mL [18]: 85.1% | MIC [19]: > 32 µg/mL | MIC [20]: inactive | CC50 at 20 h [21]: > 32 µg/mL | HC50 at 1.167 h [1]: > 32 µg/mL | HC10 [2]: > 32 µg/mL

Cc1nc(-c2ccc(-c3ccccc3)cc2)sc1-c1cc(C(=O)Nc2cccc3ccccc23)n[nH]1
MIC [7]: > 32 µg/mL | MIC [8]: > 32 µg/mL | MIC [9]: > 32 µg/mL | MIC [10]: inactive | MIC [11]: > 32 µg/mL | inhibition [12]: inactive | inhibition at 32 µg/mL [13]: 5.1% | inhibition at 32 µg/mL [14]: 0.9% | inhibition at 32 µg/mL [15]: 8.2% | inhibition at 32 µg/mL [16]: 8.9% | inhibition [17]: inactive | inhibition at 32 µg/mL [18]: 14.2% | MIC [19]: > 32 µg/mL | MIC [20]: inactive

Cc1nc(-c2ccc(-c3cccc4c3OCO4)cc2)sc1-c1cc(C(=O)NC2CCCCC2)n[nH]1
MIC [7]: inactive | MIC [8]: > 32 µg/mL | MIC [9]: inactive | MIC [10]: inactive | MIC [11]: > 32 µg/mL | inhibition [12]: inactive | inhibition at 32 µg/mL [13]: 0.9% | inhibition [14]: inactive | inhibition at 32 µg/mL [15]: 6.2% | inhibition [16]: inactive | inhibition [17]: inactive | inhibition at 32 µg/mL [18]: 41.2% | MIC [19]: > 32 µg/mL | MIC [20]: inactive

Cc1nc(-c2ccc(-c3ccccc3)cc2)sc1-c1cc(C(=O)Nc2ccc(OC(F)F)cc2)n[nH]1
MIC [7]: inactive | MIC [8]: > 32 µg/mL | MIC [9]: > 32 µg/mL | MIC [10]: inactive | MIC [11]: > 32 µg/mL | inhibition [12]: inactive | inhibition at 32 µg/mL [13]: 4.7% | inhibition [14]: inactive | inhibition at 32 µg/mL [15]: 7.1% | inhibition at 32 µg/mL [16]: 5% | inhibition [17]: inactive | inhibition at 32 µg/mL [18]: 3.6% | MIC [19]: > 32 µg/mL | MIC [20]: inactive

Cc1nc(-c2ccc(I)cc2)sc1-c1cc(C(=O)NN2CCOCC2)n[nH]1
MIC [7]: > 32 µg/mL | MIC [8]: > 32 µg/mL | MIC [9]: > 32 µg/mL | MIC [10]: inactive | MIC [11]: > 32 µg/mL | inhibition [12]: inactive | inhibition at 32 µg/mL [13]: 3.5% | inhibition at 32 µg/mL [14]: 2.8% | inhibition at 32 µg/mL [15]: 10.1% | inhibition at 32 µg/mL [16]: 8.4% | inhibition [17]: inactive | inhibition at 32 µg/mL [18]: 15.7% | MIC [19]: > 32 µg/mL | MIC [20]: inactive

c1ccc(COc2ccc(-c3cc(C4CCNCC4)[nH]n3)cc2)cc1
MIC [4]: 64 µg/mL (≈ 192 µM) | MIC [6]: 64 µg/mL (≈ 192 µM) | IC50 [22]: 128 µg/mL (≈ 384 µM)
